Measurements as given in patent US8926966B1 (Regents of the University of California, priority 1990, dated 2015).

Test system: IDDM associated autoantibodies in sera
Assay: ELISA of sera on plate-bound human GAD65 peptides
Format: binding
Conditions: for number of IDDM (at risk, pre-IDDM, at onset) patients positive (X) for the peptide (unlabelled sum line): IDDM sera of Table 11; for controls whose sera recognized the peptide / number of control sera positive (X) for the peptide (unlabelled sum line): 13 control sera; for patients whose sera recognized the peptide: patients previously shown to be 64K positive
Experimental: Patient sera and most control sera were those used in a previous study (Kaufman, et al., J. Clin. Investigation, supra) All samples were coded and tested in a blind manner. Peptides were synthesized using an automatic instrument (Applied Biosystems, Foster City, Calif.) and standard conditions. Peptides were dissolved in 60 mM sodium bicarbonate buffer (pH 9.6) at 20 ug/ml and 100 ul of each was added to duplicated wells of a 96 well Nunc-Immuno Plate. Peptides were allowed to bind at 4° C. overnight. The plates were then washed three times with PBS+0.1% Tween 20 (wash buffer), after which the plates were pre-absorbed with 3% BSA in sodium bicarbonate buffer for 0.5 hours at 37° C., or at room temperature overnight. The plates were then washed 5 times with the above wash buffer. 100 ul of serum at a 1/300 dilution in PBS+0.1% Tween 20 and 1% BSA was added to each well and antibodies were allowed to bind for 1 hour at 37° C. The plates were washed 5 times with wash buffer. 100 ul of a 1/600 dilution of HRP-goat anti-human IgG (BRL, Gaithersberg, Md.) was added to each well and allowed to bind for 1 hour at 37° C. The plates were then washed 7 times and 100 ul of substrate buffer was added to each well for 30 minutes at room temperature. The color development was measured at 410 nm using an ELISA plate reader (ICN, Biomedicals, Costa Mesa, Calif.). Positive sera were defined as: OD410 of the sample/negative control ≧3.0.

[1] = IDDM At Onset serum 048, 1/300 dilution
[2] = IDDM At Risk serum 052, 1/300 dilution
[3] = Pre-IDDM serum R.S. (2), 1/300 dilution
[4] = IDDM At Onset serum 291, 1/300 dilution
[5] = IDDM At Onset serum 705, 1/300 dilution
[6] = Pre-IDDM serum J.B. (2), 1/300 dilution
[7] = Pre-IDDM serum P.T. (2), 1/300 dilution
[8] = control serum S.M., 1/300 dilution
[9] = IDDM At Onset serum S.H., 1/300 dilution
[10] = IDDM At Risk serum 356, 1/300 dilution
[11] = Pre-IDDM serum 723, 1/300 dilution
[12] = Pre-IDDM serum P.T. (1), 1/300 dilution
[13] = Pre-IDDM serum R.S. (1), 1/300 dilution

Row | Sequence | immunoreactivity of serum with GAD65 peptide [1] | immunoreactivity of serum with GAD65 peptide [2] | number of IDDM (at risk, pre-IDDM, at onset) patients positive (X) for the peptide (unlabelled sum line) | immunoreactivity of serum with GAD65 peptide [3] | immunoreactivity of serum with GAD65 peptide [4] | immunoreactivity of serum with GAD65 peptide [5] | immunoreactivity of serum with GAD65 peptide [6] | immunoreactivity of serum with GAD65 peptide [7] | immunoreactivity of serum with GAD65 peptide [8] | immunoreactivity of serum with GAD65 peptide [9] | immunoreactivity of serum with GAD65 peptide [10] | immunoreactivity of serum with GAD65 peptide [11] | immunoreactivity of serum with GAD65 peptide [12] | also measured
1 | KPCSCSKVDVNYAFLHATDL [Peptide 6] | X (X = positive for immunoreactivity as defined by 00/background^3.0) | X (X = positive for immunoreactivity as defined by 00/background^3.0) | 2 | b (b = borderline response (00/background ?2.5-2.9).) |  |  |  |  |  |  |  |  |  | 
2 | LEAKQKGFVPFLVSATAGTT [Peptide 22] |  |  | 2 |  | X (X = positive for immunoreactivity as defined by 00/background^3.0) | X (X = positive for immunoreactivity as defined by 00/background^3.0) | b (b = borderline response (00/background ?2.5-2.9).) | b (b = borderline response (00/background ?2.5-2.9).) |  |  |  |  |  | 
3 | LLYGDAEKPAESGGSQPPRA [Peptide 4] |  |  |  |  | X (X = positive for immunoreactivity as defined by 00/background^3.0) |  | b (b = borderline response (00/background ?2.5-2.9).) | b (b = borderline response (00/background ?2.5-2.9).) |  |  |  |  |  | 
4 | TNMFTYEIAPVFVLLEYVTL [Peptide 14] |  | b (b = borderline response (00/background ?2.5-2.9).) |  |  |  |  |  |  |  |  |  |  |  | 
5 | VPLQCSALLVREEGLMQNCNQ [Peptide 27] |  |  |  |  |  |  |  |  | b (b = borderline response (00/background ?2.5-2.9).) |  |  |  |  | 
6 | GLLMSRKHKLSGVERANS [Peptide 25] | X (X = positive for immunoreactivity as defined by 00/background^3.0) |  | 8 | X (X = positive for immunoreactivity as defined by 00/background^3.0) | X (X = positive for immunoreactivity as defined by 00/background^3.0) | X (X = positive for immunoreactivity as defined by 00/background^3.0) | b (b = borderline response (00/background ?2.5-2.9).) | X (X = positive for immunoreactivity as defined by 00/background^3.0) | X (X = positive for immunoreactivity as defined by 00/background^3.0) | X (X = positive for immunoreactivity as defined by 00/background^3.0) | X (X = positive for immunoreactivity as defined by 00/background^3.0) | X (X = positive for immunoreactivity as defined by 00/background^3.0) | b (b = borderline response (00/background ?2.5-2.9).) | controls whose sera recognized the peptide: 1 out of 13; number of control sera positive (X) for the peptide (unlabelled sum line): 1; immunoreactivity of serum with GAD65 peptide (IDDM At Risk serum 825, 1/300 dilution): b (b = borderline response (00/background ?2.5-2.9).); immunoreactivity of serum with GAD65 peptide [13]: X (X = positive for immunoreactivity as defined by 00/background^3.0); immunoreactivity of serum with GAD65 peptide (control serum FA12, 1/300 dilution): b (b = borderline response (00/background ?2.5-2.9).); patients whose sera recognized the peptide: 6/8
7 | SFDRSTKVIDFHYPNELLQE [Peptide 9] | X (X = positive for immunoreactivity as defined by 00/background^3.0) | b (b = borderline response (00/background ?2.5-2.9).) | 3 | b (b = borderline response (00/background ?2.5-2.9).) |  |  |  | b (b = borderline response (00/background ?2.5-2.9).) | X (X = positive for immunoreactivity as defined by 00/background^3.0) |  | X (X = positive for immunoreactivity as defined by 00/background^3.0) | X (X = positive for immunoreactivity as defined by 00/background^3.0) | b (b = borderline response (00/background ?2.5-2.9).) | immunoreactivity by both control and patient sera: often positive; number of control sera positive (X) for the peptide (unlabelled sum line): 2; immunoreactivity of serum with GAD65 peptide [13]: b (b = borderline response (00/background ?2.5-2.9).); immunoreactivity of serum with GAD65 peptide (control serum 4380, 1/300 dilution): b (b = borderline response (00/background ?2.5-2.9).); immunoreactivity of serum with GAD65 peptide (control serum 5620, 1/300 dilution): b (b = borderline response (00/background ?2.5-2.9).); immunoreactivity of serum with GAD65 peptide (control serum 5748, 1/300 dilution): b (b = borderline response (00/background ?2.5-2.9).); immunoreactivity of serum with GAD65 peptide (control serum A.P., 1/300 dilution): X (X = positive for immunoreactivity as defined by 00/background^3.0)
8 | QKFTGGIGIGNKLCALLYGD [Peptide 3] | X (X = positive for immunoreactivity as defined by 00/background^3.0) |  |  |  | b (b = borderline response (00/background ?2.5-2.9).) |  |  |  |  | X (X = positive for immunoreactivity as defined by 00/background^3.0) |  | X (X = positive for immunoreactivity as defined by 00/background^3.0) |  | immunoreactivity of serum with GAD65 peptide (IDDM At Risk serum L.I., 1/300 dilution): b (b = borderline response (00/background ?2.5-2.9).)
9 | DERGKMIPSDLERRILEAKQ [Peptide 21] | X (X = positive for immunoreactivity as defined by 00/background^3.0) |  | 7 | b (b = borderline response (00/background ?2.5-2.9).) | X (X = positive for immunoreactivity as defined by 00/background^3.0) | X (X = positive for immunoreactivity as defined by 00/background^3.0) | b (b = borderline response (00/background ?2.5-2.9).) | X (X = positive for immunoreactivity as defined by 00/background^3.0) | b (b = borderline response (00/background ?2.5-2.9).) | X (X = positive for immunoreactivity as defined by 00/background^3.0) | X (X = positive for immunoreactivity as defined by 00/background^3.0) | X (X = positive for immunoreactivity as defined by 00/background^3.0) | X (X = positive for immunoreactivity as defined by 00/background^3.0) | controls whose sera recognized the peptide: none; immunoreactivity of serum with GAD65 peptide (Pre-IDDM serum J.A., 1/300 dilution): X (X = positive for immunoreactivity as defined by 00/background^3.0); patients whose sera recognized the peptide: 6/8
